Source: ChEMBL document CHEMBL1201862, “PubChem BioAssay data set” (2004)
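Values below derive from 48-hour exposures of cells grown in 96-well plates, with endpoints linearly interpolated between the two concentrations bracketing the appropriate inhibition level. GI50 is the concentration that inhibits growth by half.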 Active and inactive are the calls of the source. No stated cut-off is given here; in the data, active = GI50 up to about 1.1 µM and inactive = higher.

What was measured:
Experiment in all cases: growth of human tumour cells (NCI), 48 h
MOLT-4 = system: MOLT-4
Malme-3M = system: Malme-3M
HCT-15 = system: HCT-15
SW-620 = system: SW-620
SF-295 = system: SF-295
SF-268 = system: SF-268
M19-MEL = system: M19-MEL
HT-29 = system: HT-29
SR = system: SR
HL-60 = system: HL-60
A498 = system: A498
K562 = system: K562
SF-539 = system: SF-539
RPMI-8226 = system: RPMI-8226
UACC-62 = system: UACC-62
RXF 393 = system: RXF 393
MDA-MB-435 = system: MDA-MB-435
T47D = system: T47D
Hs-578T = system: Hs-578T
PC-3 = system: PC-3

Structure (SMILES)	GI50 (MOLT-4)	GI50 (Malme-3M)	GI50 (HCT-15)	GI50 (SW-620)	GI50 (SF-295)	GI50 (SF-268)	GI50 (M19-MEL)	GI50 (HT-29)	GI50 (SR)	GI50 (HL-60)	GI50 (A498)	GI50 (K562)	GI50 (SF-539)	GI50 (RPMI-8226)	GI50 (UACC-62)	GI50 (RXF 393)	GI50 (MDA-MB-435)	GI50 (T47D)	GI50 (Hs-578T)	GI50 (PC-3)
C/C=C1\C=C(OC)CN(CCc2c[nH]c3ccccc23)C1	> 100 µM (inactive)	22.5 µM (inactive)	56.6 µM	70.3 µM (inactive)	27.9 µM (inactive)	19 µM (inactive)	79.8 µM (inactive)	25.4 µM (inactive)	61.8 µM (inactive)	61 µM (inactive)	44 µM (inactive)	72.3 µM (inactive)	> 100 µM (inactive)	73.8 µM (inactive)	41.3 µM (inactive)					
COc1cccc(NC(=S)Nn2c(C)nc3ccccc3c2=O)c1	> 100 µM (inactive)	> 100 µM (inactive)	> 100 µM	> 100 µM (inactive)	> 100 µM (inactive)	> 100 µM (inactive)	> 100 µM (inactive)	> 100 µM (inactive)	> 100 µM (inactive)	> 100 µM (inactive)	> 100 µM (inactive)	> 100 µM (inactive)	> 100 µM (inactive)	> 100 µM (inactive)	71.6 µM (inactive)	> 100 µM (inactive)				
O=C1C(Br)=CC2(C=C1Br)CCNC1=C2C2=NCCc3c[nH]c(c32)C1=O	0.0315 µM (active)	0.0415 µM (active)	0.0605 µM	0.0255 µM (active)	1.25 µM (inactive)	0.347 µM (active)	0.0275 µM (active)	0.0275 µM (active)	0.0431 µM (active)	0.0129 µM (active)	1.23 µM (inactive)	0.028 µM (active)	0.246 µM (active)	0.0355 µM (active)	0.0933 µM (active)	0.0681 µM (active)	0.102 µM (active)	0.0828 µM (active)	0.445 µM (active)	0.307 µM (active)
O=C(c1ccc(F)cc1)c1cccc(C(=O)c2ccc(F)cc2)n1	> 100 µM (inactive)	> 77.6 µM (inactive)	> 100 µM	> 83.9 µM (inactive)	3.4 µM (inactive)	24.6 µM (inactive)	> 72.3 µM (inactive)	> 100 µM (inactive)	> 100 µM (inactive)	> 100 µM (inactive)	> 52.7 µM (inactive)	> 100 µM (inactive)	30.8 µM (inactive)	> 100 µM (inactive)	44.2 µM (inactive)	5.56 µM (inactive)	> 100 µM (inactive)	34.4 µM (inactive)	25.6 µM (inactive)	> 100 µM (inactive)
NC(=O)N/N=C(\Cc1nc2ccc(C(=O)c3ccccc3)cc2nc1O)C(=O)Nc1ccc(Br)cc1	> 100 µM (inactive)	> 100 µM (inactive)	> 100 µM	> 100 µM (inactive)	> 100 µM (inactive)	> 100 µM (inactive)	> 100 µM (inactive)	> 100 µM (inactive)	> 100 µM (inactive)	> 100 µM (inactive)	> 100 µM (inactive)	> 100 µM (inactive)	> 100 µM (inactive)	> 100 µM (inactive)	> 100 µM (inactive)	> 100 µM (inactive)				
Cc1ccc(C(=O)N2CCCCC2)cc1/N=N/N(C)C	> 100 µM (inactive)	> 100 µM (inactive)	> 100 µM	> 100 µM (inactive)	> 100 µM (inactive)	> 100 µM (inactive)	> 100 µM (inactive)	> 100 µM (inactive)	> 100 µM (inactive)	> 100 µM (inactive)	> 100 µM (inactive)	> 100 µM (inactive)	> 100 µM (inactive)	> 100 µM (inactive)	> 100 µM (inactive)					
O=C(O)c1c[nH]cc1C(=O)O	> 100 µM (inactive)	> 100 µM (inactive)	> 100 µM	> 100 µM (inactive)	> 100 µM (inactive)	> 100 µM (inactive)	> 100 µM (inactive)	> 100 µM (inactive)	> 100 µM (inactive)	> 100 µM (inactive)	> 100 µM (inactive)	> 100 µM (inactive)	> 100 µM (inactive)	> 100 µM (inactive)	> 100 µM (inactive)	> 100 µM (inactive)				
Cc1c(-c2coc(-c3ccccc3)n2)c(=O)n(-c2ccccc2)n1C	25.6 µM (inactive)	98.6 µM (inactive)	> 100 µM	37.8 µM (inactive)	> 100 µM (inactive)	> 100 µM (inactive)	56.2 µM (inactive)	57.7 µM (inactive)	45.5 µM (inactive)	76.7 µM (inactive)	> 100 µM (inactive)		> 100 µM (inactive)	36.5 µM (inactive)						
